Results as given in paper PMC12564265, “Navigating the Deep Eutectic Solvent Landscape: Experimental and Machine Learning Solubility Explorations of Syringic, p-Coumaric, and Caffeic Acids” (International Journal of Molecular Sciences, 2025).
Where “and” joins values, the source holds several entries; their conditions need not be identical. Identical values can stand only once.

Legend:
[1] = Shake-flask solubility with spectrophotometric measurement in neat deep eutectic solvents; assay type: physicochemical
Protocol: (§1) In order to determine the solubility of the three studied phenolic acids in deep eutectic solvents, a very well-established shake-flask method coupled with spectrophotometric measurements was utilized. The initial procedure involved the preparation of various DESs, which was conducted by mixing their HBA and HBD counterparts in a glass vessel and heating the composition until the formation of a transparent, uniform liquid. […] For additional measurements, the DESs were mixed with water in varying proportions, creating aqueous DES systems. Saturated solutions of CAF, SYR, and COU were obtained by adding excess amounts of these compounds to test tubes containing either a neat deep eutectic solvent or its aqueous solution. Such samples were placed in the Orbital Shaker Incubator ES-20/60 from Biosan (Riga, Latvia) and heated for 24 h at 25 °C, 30 °C, 35 °C, and 40 °C (±0.1 °C) with simultaneous mixing at 60 rpm. Before measurements, the samples were filtered using a PTFE syringe filter from Qpore (Dallas, TX, USA) with a 0.22 μm pore size. In order to avoid possible precipitation of the saturated solutions at decreased temperatures, the test tubes, syringes, pipette tips, and filters were kept at a temperature identical to that of the samples. The spectrophotometric measurements required the preparation of calibration curves for the three APIs. This involved the preparation of a stock solution of each compound in methanol, which was later successfully diluted, and the obtained solutions of varying concentrations were measured using an A360 spectrophotometer from AOE Instruments (Shanghai, China). The wavelength range was set to 200-500 nm, and the resolution was 1 nm. The analytical wavelengths were determined to be 324 nm for caffeic acid, 273 nm for syringic acid, and 308 nm for p-coumaric acid. The final regression equations, obtained after averaging three distinct sets of measurements, are collected in Table 2 together with determination coefficients and limits of detection (LOD) and quantification (LOQ) for the calibration curves. The measurements of the samples were conducted with the same spectrophotometer and identical settings. Methanol was used for the dilution of the samples so that they could remain within the linearity range of the method. Complete spectra of the samples were recorded, but for the solubility determination, the absorbance values at a specific analytical wavelength were considered. These values were combined with the corresponding regression equations of the calibration curves and served for the calculation of the concentration of the three phenolic acids in the studied samples. The densities of such samples were also measured, and for this task 1 mL of each sample was weighed to a precision of 0.1 mg using an AS 110 R2.PLUS analytical balance from […] (Radom, Poland). The obtained densities enabled the calculation of mole fractions of CAF, SYR, and COU dissolved in the studied DESs. For each considered system, three distinct measurements were conducted, and the results were averaged.

[2] = Shake-flask solubility with spectrophotometric measurement in aqueous DES mixtures; assay type: physicochemical; conditions: Bet – GLY 1:2 + water
Protocol: as §1

## O=C(O)C=Cc1ccc(O)cc1 [p-coumaric acid, 4-hydroxycinnamic acid]
[1]; neat DES Bet - DEG, HBA:HBD molar ratio 1:1, 25 °C
  Mole fraction solubility: 0.0490±0.0005 mole fraction
[1]; neat DES Bet - DEG, HBA:HBD molar ratio 1:2, 25 °C
  Mole fraction solubility: 0.0639±0.0004 mole fraction
[1]; neat DES Bet - DEG, HBA:HBD molar ratio 1:4, 25 °C
  Mole fraction solubility: 0.0575±0.0005 mole fraction
[1]; neat DES Bet - ETG, HBA:HBD molar ratio 1:1, 25 °C
  Mole fraction solubility: 0.0323±0.0004 mole fraction
[1]; neat DES Bet - ETG, HBA:HBD molar ratio 1:2, 25 °C
  Mole fraction solubility: 0.0351±0.0002 mole fraction
[1]; neat DES Bet - GLY, HBA:HBD molar ratio 1:1, 25 °C
  Mole fraction solubility: 0.0670±0.0005 mole fraction
[1]; neat DES Bet - GLY, HBA:HBD molar ratio 1:2, 25 °C
  Mole fraction solubility: 0.0898 mole fraction
[1]; neat DES Bet - GLY, HBA:HBD molar ratio 1:2, 25 °C, listed as coumaric acid
  Mole fraction solubility: 0.0898±0.0003 mole fraction
[1]; neat DES Bet - GLY, HBA:HBD molar ratio 1:4, 25 °C
  Mole fraction solubility: 0.0739±0.0004 mole fraction
[1]; neat DES Bet - TEG, HBA:HBD molar ratio 1:1, 25 °C
  Mole fraction solubility: 0.0648±0.0006 mole fraction
[1]; neat DES Bet - TEG, HBA:HBD molar ratio 1:2, 25 °C
  Mole fraction solubility: 0.0894±0.0005 mole fraction
[1]; neat DES Bet - TEG, HBA:HBD molar ratio 1:4, 25 °C
  Mole fraction solubility: 0.0778±0.0005 mole fraction
[1]; neat DES ChCl - DEG, HBA:HBD molar ratio 1:1, 25 °C
  Mole fraction solubility: 0.0644±0.0004 mole fraction
[1]; neat DES ChCl - DEG, HBA:HBD molar ratio 1:2, 25 °C
  Mole fraction solubility: 0.0775±0.0005 mole fraction
[1]; neat DES ChCl - ETG, HBA:HBD molar ratio 1:1, 25 °C
  Mole fraction solubility: 0.0387±0.0004 mole fraction
[1]; neat DES ChCl - ETG, HBA:HBD molar ratio 1:2, 25 °C
  Mole fraction solubility: 0.0470±0.0003 mole fraction
[1]; neat DES ChCl - ETG, HBA:HBD molar ratio 1:4, 25 °C
  Mole fraction solubility: 0.0411±0.0004 mole fraction
[1]; neat DES ChCl - TEG, HBA:HBD molar ratio 1:2, 25 °C
  Mole fraction solubility: 0.0997 mole fraction
[2]; x*DES 0.1, 25°C
  Mole fraction solubility: 0.0093±0.0001 mole fraction
[2]; x*DES 0.1, 30°C
  Mole fraction solubility: 0.0116±0.0001 mole fraction
[2]; x*DES 0.1, 35°C
  Mole fraction solubility: 0.0146±0.0001 mole fraction
[2]; x*DES 0.1, 40°C
  Mole fraction solubility: 0.0188±0.0001 mole fraction
[2]; x*DES 0.2, 25°C
  Mole fraction solubility: 0.0212±0.0003 mole fraction
[2]; x*DES 0.2, 30°C
  Mole fraction solubility: 0.0261±0.0002 mole fraction
[2]; x*DES 0.2, 35°C
  Mole fraction solubility: 0.0328±0.0003 mole fraction
[2]; x*DES 0.2, 40°C
  Mole fraction solubility: 0.0429±0.0003 mole fraction
[2]; x*DES 0.3, 25°C
  Mole fraction solubility: 0.0316±0.0004 mole fraction
[2]; x*DES 0.3, 30°C
  Mole fraction solubility: 0.0385±0.0003 mole fraction
[2]; x*DES 0.3, 35°C
  Mole fraction solubility: 0.0489±0.0004 mole fraction
[2]; x*DES 0.3, 40°C
  Mole fraction solubility: 0.0631±0.0003 mole fraction
[2]; x*DES 0.4, 25°C
  Mole fraction solubility: 0.0424±0.0005 mole fraction
[2]; x*DES 0.4, 30°C
  Mole fraction solubility: 0.0510±0.0004 mole fraction
[2]; x*DES 0.4, 35°C
  Mole fraction solubility: 0.0654±0.0004 mole fraction
[2]; x*DES 0.4, 40°C
  Mole fraction solubility: 0.0850±0.0007 mole fraction
[2]; x*DES 0.5, 25°C
  Mole fraction solubility: 0.0545±0.0003 mole fraction
[2]; x*DES 0.5, 30°C
  Mole fraction solubility: 0.0655±0.0004 mole fraction
[2]; x*DES 0.5, 35°C
  Mole fraction solubility: 0.0843±0.0006 mole fraction
[2]; x*DES 0.5, 40°C
  Mole fraction solubility: 0.1107±0.0012 mole fraction
[2]; x*DES 0.6, 25°C
  Mole fraction solubility: 0.0687±0.0004 mole fraction
[2]; x*DES 0.6, 30°C
  Mole fraction solubility: 0.0827±0.0006 mole fraction
[2]; x*DES 0.6, 35°C
  Mole fraction solubility: 0.1045±0.0009 mole fraction
[2]; x*DES 0.6, 40°C
  Mole fraction solubility: 0.1410±0.0021 mole fraction
[2]; x*DES 0.7, 25°C
  Mole fraction solubility: 0.0803±0.0006 mole fraction
[2]; x*DES 0.7, 30°C
  Mole fraction solubility: 0.0972±0.0008 mole fraction
[2]; x*DES 0.7, 35°C
  Mole fraction solubility: 0.1233±0.0020 mole fraction
[2]; x*DES 0.7, 40°C
  Mole fraction solubility: 0.1617±0.0014 mole fraction
[2]; x*DES 0.8, 25°C
  Mole fraction solubility: 0.0900±0.0007 mole fraction
[2]; x*DES 0.8, 30°C
  Mole fraction solubility: 0.1117±0.0011 mole fraction
[2]; x*DES 0.8, 35°C
  Mole fraction solubility: 0.1413±0.0023 mole fraction
[2]; x*DES 0.8, 40°C
  Mole fraction solubility: 0.1818±0.0015 mole fraction
[2]; x*DES 0.9, 25°C
  Mole fraction solubility: 0.0926 mole fraction and 0.0926±0.0006 mole fraction
